The values that follow come from PMC3686795, “CD38 Structure-Based Inhibitor Design Using the N1-Cyclic Inosine 5′-Diphosphate Ribose Template” (PLoS ONE, 2013).

The target in series [1] is T1, wild-type CD38 (cADPR hydrolase activity) (Homo sapiens, UniProt P28907, N100D/N164A/N209D/N219D).
T1 construct: Crystal structure of human CD38 extracellular domain; made in house
T1 sequence (P28907 45-300 N100D/N164A/N209D/N219D limits assumed): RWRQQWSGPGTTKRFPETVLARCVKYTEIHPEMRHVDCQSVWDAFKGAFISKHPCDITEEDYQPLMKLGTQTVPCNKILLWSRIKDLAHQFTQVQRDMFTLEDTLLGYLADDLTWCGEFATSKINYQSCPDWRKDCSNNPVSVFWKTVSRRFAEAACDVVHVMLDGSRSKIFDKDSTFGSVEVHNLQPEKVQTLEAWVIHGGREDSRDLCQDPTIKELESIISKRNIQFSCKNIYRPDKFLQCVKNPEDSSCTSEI
Nature of the series: Enzymatic assay for cADPR hydrolysis (inhibition of CD38-catalyzed cADPR hydrolysis, fluorimetric cycling assay). The class given is biochemical. To be noted: for Fold improvement of IC50 over N1-cIDPR (cADPR hydrolysis): relative to N1-cIDPR, IC50 276 µM. The method, then: The reaction was stopped by the addition of 150 mM HCl. The precipitated protein was filtered, and the pH was neutralized with Tris base. After diluting the mixture 20-fold, the concentration of the unhydrolyzed cADPR present in the diluted reaction mixture was assayed by the fluorimetric cycling assay as previously described.

In series [2] the target is T2, CD38 NAD+ glycohydrolase activity (Homo sapiens, UniProt P28907, N100D/N164A/N209D/N219D).
T2 construct: Crystal structure of human CD38 extracellular domain; made in house
T2 sequence (P28907 45-300 N100D/N164A/N209D/N219D limits assumed): T1 sequence (P28907 45-300 N100D/N164A/N209D/N219D limits assumed)
Nature of the series: Enzymatic assay for NAD+ hydrolase (NADase) activity of CD38. It is filed as biochemical. Conditions: 1 µM NAD+, 0.1 µg/mL CD38, 1 min, 20–24°C, pH 4.5; Figure S1; read-out: IC50, inhibition of NADase activity of CD38. The method, then: The reaction was stopped by addition of 150 mM HCl, filtered and assayed for NAD^+ by the fluorimetric cycling assay as previously described.

A further series has as its target T3, CD38 (Homo sapiens, UniProt P28907, N100D/N164A/N209D/N219D).
T3 construct: Crystal structure of human CD38 extracellular domain; made in house
T3 sequence (P28907 45-300 N100D/N164A/N209D/N219D limits assumed): T1 sequence (P28907 45-300 N100D/N164A/N209D/N219D limits assumed)
Nature of the series: Incubation with CD38, nucleotide profile by HPLC (stability towards cleavage). It is filed as in vitro ADME. To be noted: HPLC after 18 h; data not shown.

The test system of another series is Jurkat T-cells. The arrangement: method as in PMID 15932322. Conditions: cited from earlier work.
For series [3], the system named is sea urchin egg homogenate. The arrangement: method as in PMID 11535079. Conditions: cited from earlier work.
The mark [4] stands for this setting: 1 µM cADPR, 2 µg/mL CD38, pH 4.5, inhibitor tested 0–1 mM, read-out: IC50, inhibition of cADPR hydrolysis by CD38.
[5] abbreviates: extrapolated beyond the tested range 0–1 mM, read-out: IC50, inhibition of cADPR hydrolysis, estimated by projection.
[6] abbreviates: 1 µM cADPR, 2 µg/mL CD38, 10 min, 20–24°C, pH 4.5, read-out: IC50, inhibition of cADPR hydrolysis by CD38.

Molecules are shown by their SMILES. pIC50: −log10 of the molar value. Where two headings read alike, the source gives them in different places.

As a reminder, the pIC50 is the negative decadic logarithm of the IC50, by convention in mol/L. As for `NCCCCNc1nc2c(=O)n3cnc2n1[C@@H]1O[C@H](COP(=O)(O)OP(=O)(O)OC[C@H]2O[C@@H]3[C@H](O)[C@@H]2O)[C@@H](O)[C@H]1O` [8-(4-Aminobutane)amino N1-cIDPR, 8-(4-aminobutane)amino N1-cIDPR], the pIC50 in series [1] (setting [4]) was less than 3.00; in series [1] (setting [5]) it was approximately 2.70.

Consider `Nc1nc2c(=O)n([C@@H]3O[C@H](COP(=O)(O)O)[C@@H](O)[C@H]3O)cnc2[nH]1` [8-Amino N1-IMP, 8-amino N1-IMP], for which the negative-log IC50 (pIC50) in series [1] (setting [6]) is 5.12.

As for `Nc1nc2c(=O)n3cnc2n1[C@@H]1O[C@H](COP(=O)(O)OP(=O)(O)OC[C@H]2O[C@@H]3[C@H](O)[C@@H]2O)[C@@H](O)[C@H]1O` [8-Amino N1-cIDPR, 8-amino N1-cIDPR], the pIC50 in series [1] (setting [6]) is 4.25; in series [2], 4.68. For the same molecule, in series [1], the “Fold improvement of IC50 over N1-cIDPR (cADPR hydrolysis)” value is listed as “over 5 fold”.

In the case of `O=c1c2nc(Br)[nH]c2ncn1[C@@H]1O[C@H](COP(=O)(O)O)[C@@H](O)[C@H]1O` [8-Bromo N1-IMP], in series [1] (setting [6]), the pIC50 is 3.70.

On to `O=c1c2nc(Br)n3c2ncn1[C@@H]1O[C@H](COP(=O)(O)OP(=O)(O)OC[C@H]2O[C@@H]3[C@H](O)[C@@H]2O)[C@@H](O)[C@H]1O` [8-Bromo N1-cIDPR, 8-bromo N1-cIDPR], for which, at CD38, the “Change in nucleotide profile after incubation with CD38” value is listed as “no change in the nucleotide profile”.

In the case of `O=c1c2nc(I)[nH]c2ncn1[C@@H]1O[C@H](COP(=O)(O)O)[C@@H](O)[C@H]1O` [8-Iodo N1-IMP, 8-iodo N1-IMP], the pIC50 in series [1] (setting [4]) was less than 3.00; in series [1] (setting [5]), approximately 2.91.

On to `O=c1c2nc[nH]c2ncn1[C@@H]1O[C@H](COP(=O)(O)O)[C@@H](O)[C@H]1O` [N1-IMP, N1-inosine 5′-monophosphate], for which, in series [1] (setting [6]), the pIC50 was 4.85. The “Fold improvement of IC50 over N1-cIDPR (cADPR hydrolysis)” value in series [1] was approximately 20 fold.

In the case of `O=c1c2ncn3c2ncn1[C@@H]1O[C@H](COP(=O)(O)OP(=O)(O)OC[C@H]2O[C@@H]3[C@H](O)[C@@H]2O)[C@@H](O)[C@H]1O` [N1-cIDPR, cyclic inosine 5′-diphosphoribose], in the series with Jurkat T-cells, the “Ca2+ release compared with cADPR” value is reported as “almost indistinguishable from Ca^2+ release induced by cADPR”.

As for `N=c1c2ncn3c2ncn1[C@@H]1C[C@H](COP(=O)(O)OP(=O)(O)OC[C@H]2O[C@@H]3[C@H](O)[C@@H]2O)[C@@H](O)[C@H]1O` [cADPcR, cyclic ADP-carbocyclic ribose, reference compound], the pIC50 in series [1] (setting [6]) was 3.89. Further, in series [3], the “Ca2+ release activity” value is given as “potent Ca^2+ release agent”.
